Measured values as given in patent US11866695B2, “Methods and systems and related compositions for mixtures separation with a solid matrix” (CALIFORNIA INSTITUTE OF TECHNOLOGY, priority 2019, dated 2024).

Experiments:
λ phage DNA = experiment: Zymo Quick-Viral DNA/RNA kit extraction with additional TPW, LAMP with 2× diluted eluent; format: biochemical
Protocol: LAMP reactions contained the following concentrations of reagents: 1× Isothermal Amplification Buffer (20 mM Tris-HCl pH 8.8, 10 mM (NH4)2SO4, 50 mM KCl, 5 mM MgSO4, 0.1% Tween-20, B0537S, NEB, Ipswich, Mass., USA), an additional 2 mM MgSO4 (B1003S, NEB), 1.4 mM deoxynucleotide mix (N0447L or N0446S, NEB), […] Invitrogen Syto-9 (S34854, Thermo Fisher Scientific), […] Invitrogen bovine serum albumin (15561020, Thermo Fisher Scientific), 320 U/mL WarmStart Bst 2.0 (M0538L, NEB), and were supplemented with nuclease-free water (not DEPC-Treated, 4387936, Thermo Fisher Scientific) up to 10 μL. LAMP primers (Integrated DNA Technologies (IDT), Coralville, Iowa, USA) were designed, ordered, and added at NEB's recommended concentrations of […] FIP/BIP, 0.2μM F3/B3, and […] LoopF/B.
Each 96-well plate was sealed and briefly spun. Heating and real-time imaging were performed on the Bio-Rad CFX-96 Touch Real-Time PCR Detection System (1855195, Bio-Rad). Each 96-well plate was cooled to 12° C. for 2 min, held at 68° C. for 47 min with 35-second fluorescence read intervals, and a melt-curve analysis was performed. For the E. coli DNA dilution experiment, the 68° C. step was held for 105 min. Time-to-positive (TTP) was determined when the software's automated baseline corrected fluorescence reached 1000 RFU.
Three different silica-column kits were tested, including: Zymo ZR Viral DNA/RNA Kit (outdated protocol, D7021), Zymo Quick-DNA/RNA Kit (updated protocol, D7021), and the QIAquick PCR Purification Kit (28104, Qiagen). For all silica-column kits, fresh collection tubes were used after each spin and centrifugation speeds were set to 16,000×g. Centrifugation was performed on either an Eppendorf 5415D centrifuge (Eppendorf, Hauppauge, N.Y., USA) or a Thermo Fisher Scientific AccuSpin Micro 17R centrifuge (13-100-676). It was noted that the QIAquick protocol calls for 17,900×g, but instead was run at 16,000×g which was the max speed for the Eppendorf 5415D. […]

[1] = system: LAMP spiked with 5×104 copies λ phage DNA; experiment: LAMP reaction inhibition by dilutions of NA extraction kit buffers; format: biochemical; details: for Avg TTP: 9 replicates, non-detects assigned 46.7 min
Protocol: LAMP primers (Integrated DNA Technologies (IDT), Coralville, Iowa, USA) were designed, ordered, and added at NEB's recommended concentrations of […] FIP/BIP, 0.2μM F3/B3, and […] LoopF/B.
Each 96-well plate was sealed and briefly spun. […] Time-to-positive (TTP) was determined when the software's automated baseline corrected fluorescence reached 1000 RFU.
Confidence intervals were calculated assuming the populations to be normally distributed and using a t statistic. For buffer inhibition experiments, statistical analysis was performed by a 1-tailed unequal variance t-test (N=9) comparing the water condition (control) to each buffer concentration (H1: the mean is delayed). For the subsequent experiments, a 2-tailed unequal variance t-test (H1: the means are different) was used. […] Although this approach introduces some bias into the analysis, it is believed this is the best representation for handling non-detects (other alternatives include excluding the non-detects or assigning non-detect values to the average of those that amplified).
These two commercial kits in particular were chosen because they both utilize minimal protocols (lysis, wash, elute) with no added steps (e.g. bacterial pellet spins, proteinase K, lysozyme, DNase/RNase, filtration, etc.). Specifically, an experiment was conducted to identify the concentration at which each buffer inhibits qPCR and LAMP.

CCCCCCCCCCCO [1-undecanol]
reduction in TTP vs manufacturer protocol (λ phage DNA; 2× eluent dilution): 0.78 min
TTP (λ phage DNA; 2× eluent dilution, 3 columns): 6.00 ± 0.04 min
TTP (λ phage DNA; all 27 wells): 10.23 ± 0.06 min

CCO [Ethanol, ethanol]
Avg TTP ([1]; 0.03% buffer in LAMP): 6.4 min
ΔTTP ([1]; 0.03% buffer vs water condition (0%)): 0.1 min
Avg TTP ([1]; 0.1% buffer in LAMP): 6.5 min
ΔTTP ([1]; 0.1% buffer vs water condition (0%)): 0.1 min
Avg TTP ([1]; 0.32% buffer in LAMP): 6.6 min
ΔTTP ([1]; 0.32% buffer vs water condition (0%)): 0.2 min
Avg TTP ([1]; 1% buffer in LAMP): 6.9 min
ΔTTP ([1]; 1% buffer vs water condition (0%)): 0.5 min
Avg TTP ([1]; 3.2% buffer in LAMP): 9.7 min
ΔTTP ([1]; 3.2% buffer vs water condition (0%)): 3.3 min
Avg TTP ([1]; 10% buffer in LAMP): 46.7 min
ΔTTP ([1]; 10% buffer vs water condition (0%)): 40.3 min
